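Following 48 hours of exposure in 96-well plates, responses at five concentrations were used to interpolate endpoints linearly. The concentration for full growth arrest is given as TGI.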
What was measured:
Test in all cases: NCI tumour cell line growth inhibition, 48 h
786-0 renal = test system: 786-0 renal
A498 renal = test system: A498 renal
A549 NSCLC = test system: A549 NSCLC
ACHN renal = test system: ACHN renal
BT-549 breast = test system: BT-549 breast
CAKI-1 renal = test system: CAKI-1 renal
CCRF-CEM leukemia = test system: CCRF-CEM leukemia
COLO 205 colon = test system: COLO 205 colon
DLD-1 colon = test system: DLD-1 colon
DMS 114 small cell lung = test system: DMS 114 small cell lung
DMS 273 small cell lung = test system: DMS 273 small cell lung
DU-145 prostate = test system: DU-145 prostate
EKVX NSCLC = test system: EKVX NSCLC
HCC-2998 colon = test system: HCC-2998 colon
HCT-116 colon = test system: HCT-116 colon
HCT-15 colon = test system: HCT-15 colon
HL-60(TB) leukemia = test system: HL-60(TB) leukemia
HOP-18 NSCLC = test system: HOP-18 NSCLC
HOP-62 NSCLC = test system: HOP-62 NSCLC
HOP-92 NSCLC = test system: HOP-92 NSCLC
HS 578T breast = test system: HS 578T breast
HT29 colon = test system: HT29 colon
IGROV1 ovarian = test system: IGROV1 ovarian
K-562 leukemia = test system: K-562 leukemia
KM12 colon = test system: KM12 colon
KM20L2 colon = test system: KM20L2 colon
LOX IMVI melanoma = test system: LOX IMVI melanoma
M14 melanoma = test system: M14 melanoma
M19-MEL melanoma = test system: M19-MEL melanoma
MALME-3M melanoma = test system: MALME-3M melanoma
MCF7 breast = test system: MCF7 breast
MDA-MB-231 breast = test system: MDA-MB-231 breast
MDA-MB-435 = test system: MDA-MB-435
MOLT-4 leukemia = test system: MOLT-4 leukemia
NCI-H226 lung = test system: NCI-H226 lung
NCI-H23 lung = test system: NCI-H23 lung
NCI-H460 lung = test system: NCI-H460 lung
NCI-H522 lung = test system: NCI-H522 lung
NCI/ADR-RES ovarian = test system: NCI/ADR-RES ovarian
OVCAR-3 ovarian = test system: OVCAR-3 ovarian
OVCAR-4 ovarian = test system: OVCAR-4 ovarian
OVCAR-5 ovarian = test system: OVCAR-5 ovarian
OVCAR-8 ovarian = test system: OVCAR-8 ovarian
P388 leukemia = test system: P388 leukemia
P388/ADR leukemia = test system: P388/ADR leukemia
PC-3 prostate = test system: PC-3 prostate
RPMI-8226 leukemia = test system: RPMI-8226 leukemia
RXF 393 renal = test system: RXF 393 renal
SF-268 CNS = test system: SF-268 CNS
SF-295 CNS = test system: SF-295 CNS
SF-539 CNS = test system: SF-539 CNS
SK-MEL-2 melanoma = test system: SK-MEL-2 melanoma
SK-MEL-28 melanoma = test system: SK-MEL-28 melanoma
SK-MEL-5 melanoma = test system: SK-MEL-5 melanoma
SK-OV-3 ovarian = test system: SK-OV-3 ovarian
SN12C renal = test system: SN12C renal
SN12K1 renal = test system: SN12K1 renal
SNB-19 CNS = test system: SNB-19 CNS
SNB-75 CNS = test system: SNB-75 CNS
SNB-78 CNS = test system: SNB-78 CNS
SR leukemia = test system: SR leukemia
SW-620 colon = test system: SW-620 colon
T-47D breast = test system: T-47D breast
TK-10 renal = test system: TK-10 renal
U251 CNS = test system: U251 CNS
UACC-257 melanoma = test system: UACC-257 melanoma
UACC-62 melanoma = test system: UACC-62 melanoma
UO-31 renal = test system: UO-31 renal
XF 498 CNS = test system: XF 498 CNS

Q: For `CS(=O)(=O)OCCCNCCCOS(C)(=O)=O`, which TGI (786-0 renal) is on record?
A: 6.31 mM

Q: What about the TGI (A498 renal) of the same compound?
A: 3.63 mM

Q: And the TGI (A549 NSCLC)?
A: 4.55 mM

Q: And the TGI (ACHN renal)?
A: 3.58 mM

Q: What about the TGI (BT-549 breast) of the same compound?
A: 4.5 mM

Q: What about the TGI (CAKI-1 renal) of the same compound?
A: 4.28 mM

Q: And the TGI (CCRF-CEM leukemia)?
A: 3.13 mM

Q: And the TGI (COLO 205 colon)?
A: 4.54 mM

Q: And the TGI (DLD-1 colon)?
A: 9.1 mM

Q: And the TGI (DMS 114 small cell lung)?
A: 3.63 mM

Q: And the TGI (DMS 273 small cell lung)?
A: 1.15 mM

Q: And the TGI (DU-145 prostate)?
A: 6.44 mM

Q: What about the TGI (EKVX NSCLC) of the same compound?
A: 6.03 mM

Q: What about the TGI (HCC-2998 colon) of the same compound?
A: 3.67 mM

Q: What about the TGI (HCT-116 colon) of the same compound?
A: 5.67 mM

Q: What about the TGI (HCT-15 colon) of the same compound?
A: 4.68 mM

Q: What about the TGI (HL-60(TB) leukemia) of the same compound?
A: 2.54 mM

Q: What about the TGI (HOP-18 NSCLC) of the same compound?
A: 2.56 mM

Q: What about the TGI (HOP-62 NSCLC) of the same compound?
A: 6.03 mM

Q: And the TGI (HOP-92 NSCLC)?
A: 4.4 mM

Q: And the TGI (HS 578T breast)?
A: 8.17 mM

Q: And the TGI (HT29 colon)?
A: 4.48 mM

Q: What about the TGI (IGROV1 ovarian) of the same compound?
A: 7.3 mM

Q: What about the TGI (K-562 leukemia) of the same compound?
A: 9.08 mM

Q: And the TGI (KM12 colon)?
A: 5.51 mM

Q: And the TGI (KM20L2 colon)?
A: 5.86 mM

Q: And the TGI (LOX IMVI melanoma)?
A: 3.92 mM

Q: And the TGI (M14 melanoma)?
A: 5.05 mM

Q: And the TGI (M19-MEL melanoma)?
A: 5.56 mM

Q: And the TGI (MALME-3M melanoma)?
A: 4.89 mM

Q: And the TGI (MCF7 breast)?
A: 5.32 mM

Q: What about the TGI (MDA-MB-231 breast) of the same compound?
A: 6.12 mM

Q: And the TGI (MDA-MB-435)?
A: 8.69 mM

Q: And the TGI (MOLT-4 leukemia)?
A: 2.34 mM

Q: And the TGI (NCI-H226 lung)?
A: 5.86 mM

Q: What about the TGI (NCI-H23 lung) of the same compound?
A: 5.63 mM

Q: What about the TGI (NCI-H460 lung) of the same compound?
A: 2.45 mM

Q: What about the TGI (NCI-H522 lung) of the same compound?
A: 5.51 mM

Q: And the TGI (NCI/ADR-RES ovarian)?
A: 6.04 mM

Q: And the TGI (OVCAR-3 ovarian)?
A: 7.6 mM

Q: What about the TGI (OVCAR-4 ovarian) of the same compound?
A: 5.36 mM

Q: And the TGI (OVCAR-5 ovarian)?
A: 6.29 mM

Q: What about the TGI (OVCAR-8 ovarian) of the same compound?
A: 6.63 mM

Q: And the TGI (P388 leukemia)?
A: 6.52 mM

Q: What about the TGI (P388/ADR leukemia) of the same compound?
A: 8.33 mM

Q: What about the TGI (PC-3 prostate) of the same compound?
A: 5.62 mM

Q: What about the TGI (RPMI-8226 leukemia) of the same compound?
A: 6.78 mM

Q: And the TGI (RXF 393 renal)?
A: 5.48 mM

Q: And the TGI (SF-268 CNS)?
A: 7.62 mM

Q: And the TGI (SF-295 CNS)?
A: 4.76 mM

Q: What about the TGI (SF-539 CNS) of the same compound?
A: 5.17 mM

Q: And the TGI (SK-MEL-2 melanoma)?
A: 3.69 mM

Q: And the TGI (SK-MEL-28 melanoma)?
A: 7.56 mM

Q: And the TGI (SK-MEL-5 melanoma)?
A: 3.22 mM

Q: And the TGI (SK-OV-3 ovarian)?
A: 7.47 mM

Q: And the TGI (SN12C renal)?
A: 3.83 mM

Q: And the TGI (SN12K1 renal)?
A: 2.32 mM

Q: And the TGI (SNB-19 CNS)?
A: 6.45 mM

Q: What about the TGI (SNB-75 CNS) of the same compound?
A: 6.94 mM

Q: And the TGI (SNB-78 CNS)?
A: 8.53 mM

Q: And the TGI (SR leukemia)?
A: 2.97 mM

Q: What about the TGI (SW-620 colon) of the same compound?
A: 6.72 mM

Q: And the TGI (T-47D breast)?
A: 6.74 mM

Q: And the TGI (TK-10 renal)?
A: 6.93 mM

Q: What about the TGI (U251 CNS) of the same compound?
A: 5.46 mM

Q: And the TGI (UACC-257 melanoma)?
A: 5.31 mM

Q: And the TGI (UACC-62 melanoma)?
A: 4.26 mM

Q: What about the TGI (UO-31 renal) of the same compound?
A: 6.43 mM

Q: And the TGI (XF 498 CNS)?
A: 2.6 mM

Source: PubChem BioAssay (NCI)
